Experimental data published in patent US20150018305A1, “SIRTUIN INDUCER, TISSUE REPAIRING AGENT, HEPATOCYTE GROWTH FACTOR INDUCER, TISSUE HOMEOSTASIS MAINTENANCE AGENT, AND TLR4 AGONIST, HAVING HYALURONIC ACID FRAGMENT AS ACTIVE INGREDIENT” (HYALURONAN RESEARCH INSTITUTE, INC., priority 2012, published 2015).

What was measured:
[1] = system: human large intestine epithelial cells (HT29 cells); assay: Hydrogen peroxide induced aging of human large intestine epithelial cells, MTS assay (Test Examples 16-18); type: cell-based; conditions: for suppression of cellular aging (MTS value, OD 490 nm): hydrogen peroxide 10 μM 15 min
Description: Human large intestine epithelial cells (HT29 cells) were experienced cellular aging (decline in mitochondrial activity due to injury, or a drop in the MTS value once cell death occurs) due to stimulation by the hydrogen peroxide when treated with hydrogen peroxide, and it was investigated whether this process is affected by treatment with the hyaluronic acid fragment. Specifically, the following test was performed.
Using a DMEM culture medium (made by Wako Pure Chemical Industries, Ltd.), human large intestine epithelial cells (HT29 cells) were cultured by usual methods at 37° C. under 5% CO2. Hydrogen peroxide was added to the culture medium to a final concentration of 10 μM to bring about stimulation for a 15-minute period, and the culture broth was then transferred to DMEM culture medium containing no hyaluronic acid fragments; to DMEM culture medium containing hyaluronic acid fragment (4mer) in a final concentration of 100 ng/ml; or to DMEM culture medium containing the hyaluronic acid fragment (4mer) plus TLR4/MD2 in a final concentration of 10 μg/ml, and cultured for 3 hours.
After 3 hours had passed, an MTS assay was performed. On the basis of the action, in which MTS is converted to formazan by dehydrogenation in the mitochondria of the cell, OD 490 nm was measured to measure mitochondrial function.
Using hyaluronic acid fragment (4mer), hyaluronic acid fragment (L4mer) and hyaluronic acid fragment (L3mer) as test substances, tests similar to those of Test Example 16 were performed, except that the culture time following transfer to the culture medium containing the test substance was one hour.
Tests similar to those of Test Example 16 were performed, except for using hyaluronic acid fragment (L4mer), and hyaluronic acid fragment (L3mer) as test substances.

[2] = system: sirtuin enzymatic activity (sirt1 enzymatic activity); assay: Sirtuin enzymatic activity in cell solution of human epidermal keratinocytes, CycLex SIRT1/Sir2 Deacetylase Fluorometric Assay Kit (Test Example 2); type: cell-based; conditions: 10 ng/ml final concentration; cell crude extract
Description: Human epidermal keratinocytes were treated in the same manner as in Test Example 1, except that the final concentration of the hyaluronic acid fragment was 10 ng/ml, the size thereof being four sugar units (4mer), six sugar units (6mer), or 10 sugar units (10mer), while measuring the sirtuin enzymatic activity (sirt1 enzymatic activity) in the cell solution thereof. For purposes of comparison, 10 kDa or 900 kDa hyaluronic acid, and resveratrol, a known sirtuin activator, were likewise tested at 10 ng/ml final concentration. A human sirtuin recombinant protein (recombinant human sirt1) produced through genetic recombination techniques was used as a substance for verification of the measurement system. Sirtuin enzymatic activity in the cell crude extract was measured with the CycLex SIRT1/Sir2 Deacetylase Fluorometric Assay Kit (trade name of CycLex), following the protocol of the kit.

In the case of `CC(=O)NC1C(O[C@@H]2OC(C(=O)O)[C@@H](O[C@@H]3OC(CO)[C@@H](O)C(O[C@@H]4OC(C(=O)O)[C@@H](O)C(O)C4O)C3NC(C)=O)C(O)C2O)[C@H](O)C(CO)O[C@H]1OCCCN=[N+]=[N-]` (stereo partly shown) [L4mer], the “suppression of cellular aging (MTS value, OD 490 nm)” value ([1]; then 100 ng/ml for 3 hours) is reported as “showed effect in suppressing cellular aging”, the “suppression of cellular aging (MTS value, OD 490 nm)” value ([1]; then test substance for one hour) is reported as “showed effect in suppressing cellular aging” and the “suppression of cellular aging with TLR4/MD2 added (MTS)” value ([1]; hydrogen peroxide 10 μM, 100 ng/ml plus TLR4/MD2 10 μg/ml, 3 hours) is reported as “inhibited by the addition of TLR4/MD2”.

For `Oc1ccc(C=Cc2cc(O)cc(O)c2)cc1` [resveratrol, reference compound], the “sirtuin enzymatic activity (sirt1 enzymatic activity) compared with negative control” value [2] was “No change was observed”.
